Source: US20240377291A1, “AZETIDINE SUBSTITUTED ROSAMINES USEFUL FOR STAINING MITOCHONDRIA” (TOCRIS COOKSON LIMITED, priority 2021, published 2024)

Columns and labels:
Format in all cases: cell-based
[1] = test system: mitochondria in HeLa cells; assay: Co-staining of COMPOUND 5 with DRP1 antibody NBP2-23489 on fixed, permeabilized HeLa cells; details: 200 nM, 15 minutes, room temperature
Procedure: NBP2-23489 was incubated on fixed, permeabilized HeLa cells at 8 μg/mL for 2 hours at room temperature. Cells were then incubated with an NL557 secondary antibody (R&D Systems; Catalog #NL007) for 1 hour at room temperature protected from light. Lastly, cells were incubated with COMPOUND 5 at 200 nM for 15 minutes at room temperature protected from light. Cells were cover-slipped with a DAPI-containing mounting media and imaged. Antibody staining was pseudo-coloured green, and mitochondrial marker staining was pseudo-coloured red.

[2] = test system: mitochondria in COS-7 cells; assay: Mitochondrial membrane de-polarisation experiments (CCCP) in COS-7 cells; details: for mitochondrial signal after CCCP Chase (depolarization after staining) / mitochondrial accumulation after depolarizing the membrane potential with CCCP before staining: 100 nM dye 30 minutes; for mitochondrial signal after CCCP Chase (depolarization after staining): then 20 μM CCCP 30 minutes; for mitochondrial accumulation after depolarizing the membrane potential with CCCP before staining: 20 μM CCCP pre-treatment 30 minutes
Procedure: COS-7 cells were pre-treated with media or 20 μM CCCP for 30 minutes followed by a staining step with 100 nM COMPOUND 5 or 100 nM Comparator (MitoTracker Deep Red FM) for 30 minutes in the presence/absence of 20 μM CCCP. After the staining, excessive dye was washed out with media, with or without 20 μM CCCP for 30 minutes.

[3] = test system: mitochondria in COS-7 cells; assay: Staining of COS-7 cells at varying concentrations followed by PFA fixation, spinning disk confocal imaging; details: for toxicity at 200 nM: 30 minutes; for mitochondrial staining at low concentrations: then 4% PFA fixation; for effect of high concentration on mitochondria (fragmentation and peri-nuclear clustering suggesting toxic effects): above 200 nM
Procedure: Both COMPOUND 5 and the Comparator show some toxicity at 200 nM. COMPOUND 5 gives nice staining at 25-100 nM.
In FIG. 4 (scale bar=10 μm), images are shown after COS-7 cells were stained for 30 minutes with indicated concentrations followed by immediate fixation with 4% PFA for 20 minutes at 37° C. Images were acquired using a spinning disk confocal microscope with identical exposure time and laser power and were processed with identical settings to allow a direct comparison.

[4] = test system: mitochondria in HeLa cells; assay: Staining of HeLa cells at a single concentration followed by fixation; details: 100 nM probe 40 minutes, then 4% PFA 10 minutes
Procedure: In FIG. 5 (scale bar=10 μm), images are shown after HeLa cells were stained with 100 nM probe for 40 minutes, followed by fixation with 4% PFA for 10 minutes. Laser power and gain have been optimized for each individual probe in this figure.

[5] = test system: mitochondria in HeLa cells; assay: Post-fixation staining of HeLa cells, intensity profiles compared with a Comparator added before fixation; details: HeLa cells fixed with 4% PFA 20 min; COMPOUND 5 75 nM added after fixation
Procedure: COMPOUND 5 and the Comparator have distinct absorption and emission maxima. Intensity profiles (lower panel) taken across a set frame are shown for both COMPOUND 5 and Comparator.
Live HeLa cells were stained with a Comparator (250 nM, 45 min) and were then fixed (4% PFA, 20 min). After fixation, COMPOUND 5 (75 nM) was added and the cells were imaged. COMPOUND 5 and Comparator have distinct absorption and emission profiles and spill over between channels was not observed. Intensity profiles for both mitochondrial stains were taken across a set frame (lower panel) and compared.

[6] = test system: mitochondria in HeLa cells; assay: Co-localization with TOM20 antibody in fixed HeLa cells (probe added before fixation)
From the text: In each experiment, an antibody for the mitochondrial marker TOM20 has also been added. Co-localization of TOM20 and mitochondrial probes is directly compared in the merged data.

Row | SMILES | mitochondrial localization (overlap with antibody staining) [1] | mitochondrial signal after CCCP Chase (depolarization after staining) [2] | mitochondrial accumulation after depolarizing the membrane potential with CCCP before staining [2] | speed of mitochondrial staining relative to Comparator ([2]; inferred from CCCP chase) | toxicity at 200 nM ([3]; COS-7 cells) | toxicity at low concentrations ([3]; COS-7 cells, 25-100 nM, 30 min) | mitochondrial staining at low concentrations ([3]; COS-7 cells, 25-100 nM, 30 min) | effect of high concentration on mitochondria (fragmentation and peri-nuclear clustering suggesting toxic effects) ([3]; COS-7 cells) | staining of non-mitochondrial structures (ER, nuclear envelope) at high concentrations ([3]; COS-7 cells) | brightness compared to the Comparator ([3]; fixed COS-7 cells, particularly at 25 nM and 50 nM) | staining of mitochondria following fixation compared to a Comparator [4] | staining profile when added after fixation, compared with Comparator added before fixation [5] | co-localization with mitochondrial marker TOM20 after fixation [6]
1 | C[Si]1(C)C2=CC(=[N+]3CCC3)C=CC2=C(c2ccccc2CCl)c2ccc(N3CCC3)cc21 [COMPOUND 5, 1-(7-(azetidin-1-yl)-10-(2-(chloromethyl)phenyl)-5,5-dimethyldibenzo[b,e]silin-3(5H)-ylidene)azetidin-1-ium chloride] | localizes specifically to the mitochondria | strong mitochondrial signal | reduces the mitochondrial accumulation | more rapidly than the Comparator | some toxicity | no obvious toxicity | good mitochondrial signal with little background | mitochondrial alterations | stained additionally other cellular structures | significantly improved brightness | retains clearer staining of mitochondria | very high similarity in staining profile | –
2 | ClCc1ccccc1-c1c2ccc(=[N+]3CCC3)cc-2oc2cc(N3CCC3)ccc12 [COMPOUND 8, 1-(6-(azetidin-1-yl)-9-(2-(chloromethyl)phenyl)-3H-xanthen-3-ylidene)azetidin-1-ium chloride] | – | – | – | – | – | – | – | – | – | – | – | – | co-localize with the mitochondrial marker TOM20
3 | COC1CN(c2ccc3c(-c4ccccc4CCl)c4ccc(=[N+]5CC(OC)C5)cc-4oc3c2)C1 (centres unmarked) [COMPOUND 9, 1-(9-(2-(chloromethyl)phenyl)-6-(3-methoxyazetidin-1-yl)-3H-xanthen-3-ylidene)-3-methoxyazetidin-1-ium chloride] | – | – | – | – | – | – | – | – | – | – | – | – | co-localize with the mitochondrial marker TOM20
4 | C[N+]1=C(/C=C/C=C/C=C2\N(Cc3ccc(CCl)cc3)c3ccccc3C2(C)C)C(C)(C)c2ccccc21.[Cl-] [Comparator, MitoTracker Deep Red FM, reference compound] | – | reversible | reduces the mitochondrial accumulation | – | some toxicity | – | decreased at low concentration | mitochondrial alterations | stained additionally other cellular structures | – | – | – | –
